Measured values from patent publication US4248879A, “Benzopyranotriazoles” (Beecham Group Limited, priority 1978, dated 1981).

Key:
rat PCA = assay: Passive Cutaneous Anaphylaxis (PCA) in rats; assay type: in vivo, Male Wistar rats; conditions: S.C.
Method: Serum containing heat-labile homocytotropic antibody was raised in rats to crystallized ovalbumin XOA by the method of Mota (I. Mota, Immunology, 7, 681, (1964)) using Bordettela pertussis vaccine as adjuvant.
Passive cutaneous anaphylaxis (PCA) was carried out by a method based on that of Ovary and Bier, (A. Ovary and O. G. Bier, Proc. Soc. Exp. Bio. Med 81, 584, (1952)) as modified by Goose and Blair. (Immunology 16, 749 (1969)).
Male Wistar rats of 250-300 g were give 0.1 ml of each of six twofold serial dilutions of pooled antiserum in 0.9% saline injected intradermally into separate sites in their shaved backs. Later (72 hours) the animals were challenged by intravenous injection of 0.3 ml of a 1% solution of ovalbumin in an isotonic solution of saline buffered with 0.05 M, pH 7.2, Sorenson Buffer (PBS), mixed with 0.2 ml of a 5% solution of Pontamine Sky Blue (6BX C.I. 24410, Raymond A. Lamb, London) in isotonic saline. The rats were killed after 20 minutes and the diameter of the blue wheals at the antibody injection sites was measured on the outer surface of the skin. The starting dilution of the serum was adjusted so that there was no response, after challenge, at the injection site of the highest dilution and a maximum response at the lowest dilutions. Typically six twofold serial dilutions of the serum from 1/4 to 1/128 were used.
Compounds were tested for their ability to reduce the diameter of the wheals at those intradermal sites which in control animals gave less than maximum response. Each dose of the compound was administered to six rats at a measured time prior to intravenous challenge with ovalbumin. Control groups of six rats were given the same volume (0.2 ml: 100 g^-1) of carrier fluid at the same time prior to the challenge.
The results were calculated as follows: % inhibition of PCA=100 (1-a/b) where a=the sum of the diameters of the wheals produced in the test animal at the sites of antibody dilutions as used in control groups and b=the mean sum of the diameters of the wheals produced in the control group of animals at those antibody sites where at least five out of six of the animals gave less than maximum response. A typical variation in the control group of animals was SEM±6%.

LD50 (toxicity) in mice = conditions: mouse, in vivo
Method: The LD50 of the compound of Example 6 (d) is between 20 to 80 mg/kg i.v. and between 125 to 500 mg/kg per os, in mice.

[1] = PBS with NaHCO3, 10 mins before antigen challenge, 10 mg/kg
[2] = PBS with NaHCO3, 30 mins before antigen challenge, 10 mg/kg
[3] = PBS with NaHCO3, 10 mins before antigen challenge, 20 mg/kg
[4] = PBS with NaHCO3, 30 mins before antigen challenge, 20 mg/kg
[5] = PBS with NaHCO3, 10 mins before antigen challenge, 5 mg/kg
[6] = PBS with NaHCO3, 30 mins before antigen challenge, 5 mg/kg

O=c1c2ccccc2oc2nn[nH]c12 [Example 1, 9-Oxo-1H,9H-benzopyrano[2,3-d]-v-triazole]
% Inhibitions of rat PCA (rat PCA; [1]): 83%
% Inhibitions of rat PCA (rat PCA; [2]): 29%

Cc1ccc2oc3nn[nH]c3c(=O)c2c1 [Example 3, 7-Methyl-9-oxo-1H,9H-benzopyrano[2,3]-v-triazole]
% Inhibitions of rat PCA (rat PCA; [1]): 78%
% Inhibitions of rat PCA (rat PCA; [2]): 41%

COc1ccc2oc3nn[nH]c3c(=O)c2c1 [Example 4, 7-Methoxy-9-oxo-1H,9H-benzopyrano[2,3-d]-v-triazole]
% Inhibitions of rat PCA (rat PCA; [3]): 66%
% Inhibitions of rat PCA (rat PCA; [4]): 35%

Cc1ccc2c(=O)c3[nH]nnc3oc2c1C [Example 5, 5,6-Dimethyl-9-oxo-1H,9H-benzopyrano[2,3-d]-v-triazole]
% Inhibitions of rat PCA (rat PCA; [3]): 64%
% Inhibitions of rat PCA (rat PCA; [4]): 14%

Cc1cc2oc3nn[nH]c3c(=O)c2cc1C [Example 6d]
LD50 (LD50 (toxicity) in mice; iv): 20 to 80 mg/kg
LD50 (LD50 (toxicity) in mice; po, per os): 125 to 500 mg/kg
% Inhibitions of rat PCA (rat PCA; [5]): 72%
% Inhibitions of rat PCA (rat PCA; [6]): 22%

Cc1ccc2oc3nn[nH]c3c(=O)c2c1C [Example 6e, 7,8-dimethyl-1H,9H-benzopyrano[2,3-d]-v-triazole]
% Inhibitions of rat PCA (rat PCA; [5]): 86%
% Inhibitions of rat PCA (rat PCA; [6]): 45%

Cc1cc(C)c2c(=O)c3[nH]nnc3oc2c1C [Example 7, 9-oxo-5,6,8-Trimethyl-1H,9H-benzopyrano[2,3-d]-v-triazole]
% Inhibitions of rat PCA (rat PCA; [1]): 40%
% Inhibitions of rat PCA (rat PCA; [2]): 18%
